The text below walks through data of US6447767B1, “Non-myeloablative tolerogenic treatment” (Hadasit Medical Research Services and Development Ltd., priority 1997, dated 2002).

Data set [1] relates to Lewis rat skin xenografts.
Procedure: The basic protocol for conditioning prior to transplantation included sTLI (1-6 daily exposures of 200 cGy) to a total dose of up to 1,200 cGy, followed by intravenous inoculation with 3×10^7 BMC on the day after the last TLI dose. […] One day after BMC infusion, experimental mice were injected with 200 mg/kg Cy (Taro, Israel) intraperitoneally. Cy was freshly dissolved in sterile phosphate-buffered saline prior to injection. […] A second infusion of donor, after Cy, was also administered in some of the mice.
Skin grafting was carried out 20 days after completion of the tolerogenic treatment. A full-thickness skin graft measuring 1 cm×1 cm was adjusted to the graft bed by 4 Thomas surgery clips (Thomas Scientific, USA). The panniculus camosus was kept intact in the graft bed. The graft was considered to be accepted when hair of donor color grew on the soft flexible underlying skin, and rejected when donor epithelium was lost.
Two groups of mice were administered sTLI of 6 fractions of 200 cGy/day. After sTLI conditioning, both groups were administered 30×10^6 non-T cell depleted Lewis rat BMC intravenously. The first group was given a single dose of 200 mg/kg Cy the next day. Another 3×10^7 non T cell depleted rat BMC were administered the following day. In the second group, a dose of 60 mg/kg Cy was given daily for 3 days in contrast to the single 200 mg/kg dose given the first group. The first dose of Cy was given 10 hours after the first rat BMC inoculation, the second dose at 24 hours and the third dose at 48 hours (see below). After administration of three doses of 60 mg/kg Cy, a second inoculation of 3×10^7 non T cell depleted rat BMC were administered.
The subject of data set [2] is metastatic solid tumors / lymphoma. Nature of the data set: AlloCT with rIL-2 activated mismatched lymphocytes plus tumor-specific antibodies (case reports). It counts as in vivo, human. The settings on record: single patients; antibody given with rIL-2 activated haploidentically mismatched lymphocytes.
Source text: Donor-derived anti-cancer effector lymphocytes consisted of rIL-2 activated cells (four days activation with rIL-26,000 IU/ml) or using donor lymphocytes activated in vitro against irradiated tumor cells or host alloantigens in one way mixed lymphocyte tumor reaction or using donor lymphocytes pre-cultured with irradiated parental or other family member expressing either one of the patient's haplotypes in one way mixed lymphocyte cultures (in order to induce effector cells against inherited paternal or maternal haplotypes, to maximize anti-host alloreactivity to be used as adoptive allogeneic cell therapy (alloCT). In order to maximize anti-cancer effects, patients can be immunosuppressed with Fludarabine 25 mg/m^2×5 days. […] Following cell infusion, patients receive subcutaneously rIL-2 6×10^6 IU/m^2 in an attempt to continue to activate in vivo donor anti-tumor reactive lymphocytes. Two weeks post cell therapy, patient may receive injections of alpha interferon 3×10^6 IU every other day subcutaneously as anti-proliferative and mostly as anti-angiogenic effects to minimize or jeopardize tumor cell growth from residual tumor cells escaping alloCT.
The alloCT course was done according to the scheme described.
Both cycles of alloCT were followed with SC injections of r-IL2 6×10^6 IU for five days.
The test system of another data set is Daudi target cells. In words: 51Cr-release lysis by killer cells generated from human PBMC with rIL-2. It counts as cell-based. On the procedure:
(§1) Percent lysis was calculated by the following formula: [formula]

A further data set deals with K562 target cells. The data set is described as above. It counts as cell-based. On the procedure: as §1
The nature of data set [3]: GVHD induction by B6 spleen cells in sublethally irradiated BALB/c mice. Conditions: B6 spleen cells 30 min with 100 μg/ml, 25×10^6 per mouse, BALB/c 600 cGy (FIG. 21). It counts as in vivo. On the procedure: (§2) Recipients were monitored for survival and clinical signs of GVHD such as ruffled fur, diarrhea, and measurable weight loss. […], samples of liver and lung sections were obtained form each mouse to test for histological evidence of GVHD. Histological preparations were analyzed by an independent pathologist on a double blind basis.
(§3) In parallel murine experiments, culture of B6 bone marrow for 30 minutes with ASTA-Z (100 μg/ml) prior to injection (25×10^6 per mouse) into lethally irradiated (1,100 cGy of TBI) SJL/J mice reduced the capacity of the bone marrow cells to induce GVHD (FIG. 20). Similarly, culture of B6 spleen cells for 30 minutes with ASTA-Z (100 μg/ml) prior to injection (25×10^6 per mouse) into sublethally irradiated BALB/c mice (600 cGy) reduced the capacity of the spleen cells to induce GVHD (FIG. 21).

In data set [4] the test system is murine P815 tumor target cells. The settings on record: BALB/c SP or BM cells, ASTA-Z then rIL-2 6,000 IU/ml 4 days (FIG. 19). On the procedure:
(§4) Human peripheral blood mononuclear cell (PBMC) and murine spleen or bone marrow populations were tested for their ability to lyse NK-sensitive target cells (human K562 and murine YAC-1 cells) and NK-resistant, activated NK-sensitive target cells (human Daudi and murine P815 cells) using standard ^51Cr-release assays. Briefly, ^51 Cr-labeled target cells were incubated at 37° C. with PBMC effector cells at various target cell to effector cell ratios for 4 hours. At the end of the incubation, the cells were pelleted by centrifugation and equal aliquots of supernatant were removed from each assay culture well and counted for radioactivity. Percent lysis was calculated by the following formula: [formula]
(§5) They were then harvested and tested for cytolytic activity in standard ^51Cr-release assays. While YAC-1 cells are sensitive to lysis by both NK and activated NK cells, P815 cells are not sensitive to lysis by NK cells but are sensitive to activated NK cells. […] While K562 cells are sensitive to lysis by both NK and activated NK cells, Daudi cells are not sensitive to NK cells but are sensitive to activated NK cells.

Data set [5] deals with murine YAC-1 tumor target cells. The settings on record: BALB/c SP or BM cells, ASTA-Z then rIL-2 6,000 IU/ml 4 days (FIG. 18). On the procedure: as §4, §5
Data set [6] concerns BALB/c mouse spleen cells. Nature of the data set: Mitogen-induced T cell proliferation ([3H]-thymidine incorporation). Type of data set: cell-based. On the procedure:
Mitogen-induced T cell proliferative responses were measured by culturing spleen cells in the presence of the T cell mitogens concanavalin A (ConA, 10 μg/ml) or phytohemagglutinin (PHA, 1 μg/ml) for three days. [^3H]-thymidine was added to the cultures for the last 6 hours of culture and T cell proliferation was measured in terms of counts per minute (cpm) of [^3H]-thymidine incorporated into the DNA of the cells using cell harvesting and radioactivity techniques known to those in the art.
BALB/c spleen cells were cultured for 30 minutes at 37° C. in tissue culture medium containing 100 μg/ml of ASTA-Z and then tested for in vitro T cell responses.
In general terms: Incorporation of labelled thymidine or its analogues reports DNA synthesis.

Data set [7] is described as follows: GVHD induction by B6 bone marrow in lethally irradiated SJL/J mice. It counts as in vivo. Conditions: B6 BM 30 min with 100 μg/ml, 25×10^6 per mouse, SJL/J 1,100 cGy TBI (FIG. 20). Here is the method: as §2, §3
Where [8] appears, read: sTLI, rat BMC, single 200 mg/kg Cy, second rat BMC.
Where [9] appears, read: ASTA-Z treated PBMC cultured with IL-2 6,000 IU/ml, target:effector 1:100.
Setting [10] is: human PBMC, ASTA-Z then rIL-2 6,000 IU/ml 4 days.

Values joined by “and” are separate entries in the source; they are usually repeats but may differ in a detail not shown here. Identical values can stand only once. Like-named read-outs stand apart in the source and are kept apart here.

Take `O=P1(N(CCCl)CCCl)NCCCO1` (centres unmarked) [Cy, cyclophosphamide]: in data set [1] (Cy 3 × 60 mg/kg, of the 15 recipients that accepted xenografts), the “recipients that developed lethal GVHD” value is on record as 5. In addition, the “Skin Graft Acceptance” value in data set [1] (sTLI, rat BMC, Cy 60 mg/kg at 10 h, 24 h, 48 h, second rat BMC) was 15 of 20 and 15/20. For the same molecule, in [1] (setting [8]), the “Lethal GVHD” value was “in most of the recipients”, the “Skin Graft Acceptance” value was 0/6 and the “Skin Xenograft Survival Time” value is recorded as less than 20 days.

As for “MabThera: monoclonal anti-CD20 antibodies”, the clinical outcome in [2] was “no evidence of disease”.

Regarding mafosphamide [ASTA-Z], in the data set with Daudi target cells (setting [9]), the “Lysis of Daudi target cells (percentage of 51Cr released)” value is 42% and 71%. Also, the “generation of killer cells capable of killing Daudi target cells” value in the data set on Daudi target cells (setting [10]) is “did not decrease”. Besides, the “Lysis of K562 target cells (percentage of 51Cr released)” value in the data set on K562 target cells (setting [9]) is 52% and 48%. In addition, the “generation of killer cells capable of killing K562 target cells” value with K562 target cells (setting [10]) is given as “did not decrease”. Further, the “capacity of the spleen cells to induce GVHD” value in data set [3] is given as “reduced”. Also, the “generation of killer cells capable of killing P815 target cells” value in data set [4] was “did not decrease”. Besides, the “generation of killer cells capable of killing YAC-1 target cells” value in data set [5] is recorded as “did not decrease”. In [6] (100 μg/ml, 30 minutes, 37°C), the “in vitro proliferative responses to the T cell mitogens ConA and PHA” value is recorded as “elimination”. Besides, the “Cell Proliferation, Con-A” value in data set [6] (BALB/c spleen cells, ASTA-Z 100 μg/ml 30 min 37°C and/or IL-2 1,000 IU/ml, ConA 10 μg/ml) was 2,980 cpm. The “Cell Proliferation, PHA” value in data set [6] (BALB/c spleen cells, ASTA-Z 100 μg/ml 30 min 37°C and/or IL-2 1,000 IU/ml, PHA 1 μg/ml) was 5,118 cpm. For the same molecule, in data set [6] (BALB/c spleen cells, ASTA-Z 100 μg/ml 30 min 37°C and/or IL-2 1,000 IU/ml, no mitogen), the “Cell Proliferation, No Mitogens” value was found to be 219 cpm. For the same molecule, in [6] (IL-2 1,000 IU/ml added to cultures of spleen cells and ASTA-Z), the “effect of added IL-2 on inhibition of responsiveness to the mitogens” value is given as “did not overcome inhibition”. Besides, the “capacity of the bone marrow cells to induce GVHD” value in [7] is reported as “reduced”.

B1: Panorex: anti-epithelial cell antibodies, anti-17A (antibody, chains of the INN, looked up, V domains shown)
VH: QVQLQQSGAELVRPGTSVKVSCKASGYAFTNYLIEWVKQRPGQGLEWIGVINPGSGGTNYNEKFKGKATLTADKSSSTAYMQLSSLTSDDSAVYFCARDGPWFAYWGQGTLVTVSA
VL: NIVMTQSPKSMSMSVGERVTLTCKASENVVTYVSWYQQKPEQSPKLLIYGASNRYTGVPDRFTGSGSATDFTLTISSVQAEDLADYHCGQGYSYPYTFGGGTKLEIK
On to B1, for which the clinical outcome in data set [2] was “no evidence of disease”.
